Test results as given in US7196074B2, “Methods of making, using and pharmaceutical formulations comprising 7α, 11β-dimethyl-17β-hydroxyestra-4, 14-dien-3-one and 17 esters thereof” (The United States of America as represented by the …, priority 2000, dated 2007).

Key:
ventral prostate weight [1] = assay: Subcutaneous androgenic potency, ventral prostate weight assay in orchidectomized immature rats (injection daily for seven days); type: in vivo, Sprague-Dawley rats
Experimental: (§1) Immature (about 21-day-old) Sprague-Dawley rats were orchidectomized under anesthesia, and randomly assignee to groups of ten animals for each dose level of the active undergoing testing. Each active was dissolved in 10% ethanol/sesame oil and administered by gavage (oral) or subcutaneous injection each day for seven days beginning on the date of the orchidectomy. The animals were sacrificed 24 hours after the last dose, and the ventral prostate and seminal vesicles were excised, cleaned of fat and connective tissue, blotted on moist filter paper and weighed to the nearest 0.1 mg. Regression analysis was performed by conventional methods using a PROPHET data management system. Ventral prostate weight was used as the endpoint because it is the sensitive organ to androgenic stimulation.
as §1, with “by” for “by gavage (oral) or”, “mg. See, e.g., Hershberger, L. et al, Myotrophic Activity of 19-nortestosterone And Other Steroids Determined By Modified Levator And Muscle Method, Proc. Soc. Exptl. Bid. Med. 83 175–180 (1953).” for “mg.”, “system. See, e.g., Bliss, C., The Statistics of Bioassay (Academic Press, New York, 1952); Hollister, C., Nucleic Acids Res. 16 1873–75 (1988).” for “system.”
Immature (about 22-day-old) Sprague-Dawley male rats were orchidectomized under anesthesia, and randomly assignee to groups of ten animals for each dose level of the active undergoing testing. […] Illumination was controlled for 14 hour periods of light and 10 hours of darkness.
Each active was administered by subcutaneous injection of 0.6 mg of test material in aqueous suspending vehicle (ASV) and/or an oily vehicle (10% ethanol/sesame oil) on the day of surgery. Testosterone enanthate in sesame oil was used as a standard. The ventral prostate and seminal vesicles were excised, cleaned of fat and connective tissue, blotted on moist filter paper and weighed to the nearest 0.1 mg. Regression analysis was performed by conventional methods using a PROPHET data management system. Ventral prostate weight was used as the endpoint because it is the sensitive organ to androgenic stimulation.

ventral prostate weight [2] = assay: Duration of androgenic activity after subcutaneous injection, ventral prostate weight over weeks in orchidectomized immature rats; type: in vivo, Sprague-Dawley rats; conditions: for ventral prostate weight over time after single subcutaneous injection (in words): 0.6 mg in 0.2 ml aqueous vehicle; for AUC of ventral prostate weight, times greater than for testosterone enanthate in oily carrier: active in aqueous vehicle versus testosterone enanthate in sesame oil/oily carrier, single subcutaneous 0.6 mg
Experimental: as §1, with “was” for “was dissolved in 10% ethanol/sesame oil and”, “by” for “by gavage (oral) or”
Except for testosterone enanthate, each active was formulated in two different carriers: (1) an aqueous suspension and (2) in sesame oil. Testosterone enanthate was formulated using the sesame oil carrier only, because it exists as a liquid at room temperature and could not therefore be formulated as an aqueous suspension.
(§2) The carrier used to provide the aqueous suspension was formulated as follows: 1 g benzyl alcohol, 0.5 g sodium carboxylethyl cellulose 50, 0.376 g disodium hydrogen phosphate dihydrate, 1.495 g sodium dihydrogen phosphate dihydrate, with water for injection (WFI) being added to bring volume of the carrier up to 100 ml.
Each formulation was prepared at a concentration of 0.6 mg/0.2 ml.
Immature (about 21-day-old) Sprague-Dawley rats were orchidectomized under anesthesia, and randomly assignee to groups of 40 or more. Animals received a single subcutaneous injection of 0.6 mg of each ester in 0.2 ml of an aqueous suspending carrier and/or oily carrier (10% ethanol/90% sesame oil or ethyl oleate) on the date of the orchidectomy. In cases where the ester was not solid at room temperature, 10% ethanol/sesame oil or ethyl oleate was used as the carrier. In this example, the carrier used to provide the aqueous suspension was formulated as follows: 1 g benzyl alcohol, 0.5 g sodium carboxylethyl cellulose 50, 0.376 g disodium hydrogen phosphate dihydrate, 1.495 g sodium dihydrogen phosphate dihydrate, with water for injection (WFI) being added to bring volume of the carrier up to 100 ml.
Five animals from each group were sacrificed at weekly or biweekly intervals, and the ventral prostate and seminal vesicles were excised, cleaned of fat and connective tissue, blotted on moist filter paper and weighed to the nearest 0.1 mg.
Ventral prostate weight was used as the endpoint because it is the sensitive organ to androgenic stimulation. Regression analysis was performed by conventional methods using the PROPHET data management system previously identified.
Immature (about 21-day-old) Sprague-Dawley rats were orchidectomized under anesthesia, and randomly assignee to groups of 40 or more. Animals received a single subcutaneous injection of 0.6 mg of the undecanoate in 0.2 ml of an aqueous suspending carrier and/or oily carrier (10% ethanol/90% sesame oil containing 5 mg/ml chlorobutanol as a preservative, or ethyloleate) on the date of the orchidectomy. The enanthate ester was formulated using the 10% ethanol/sesame oil or ethyloleate carrier as a first standard, with the 10% ethanol/sesame oil carrier used as a second standard.
as §2, with “In this example, the” for “The”
Immature (about 21-day-old) Sprague-Dawley rats were orchidectomized under anesthesia, and randomly assignee to groups of 40 or more. […] The enanthate ester was formulated using the 10% ethanol/sesame oil or ethyloleate carrier as a first standard, with the 10% ethanol/sesame oil carrier used as a second standard.

SMILES	subcutaneous androgenic activity relative to testosterone (ventral prostate weight [1]; subcutaneous injection daily for 7 days in 10% ethanol/sesame oil (oily carrier), ventral prostate weight)	ventral prostate weight over time after single subcutaneous injection (in words) (ventral prostate weight [2]; listed as CDB-4521)	AUC of ventral prostate weight, times greater than for testosterone enanthate in oily carrier (ventral prostate weight [2])	area under the curve (AUC, trapezoidal rule) of ventral prostate weight (ventral prostate weight [2]; single subcutaneous 0.6 mg in aqueous vehicle, 10 week period, FIG. 15)	activity after subcutaneous administration (in words) (ventral prostate weight [1]; subcutaneous injection daily for 7 days in 10% ethanol/sesame oil, ventral prostate weight)	Androgenic Potency (activity of corresponding alcohol) (ventral prostate weight [1]; ventral prostate weight assay following subcutaneous administration, alcohol of G = 1.0 (assigned), value is for the free alcohol of the listed ester)	ventral prostate weight over time after single subcutaneous injection (in words) (ventral prostate weight [2])	activity in potency and duration after subcutaneous injection (in words), FIG. 5 (ventral prostate weight [2]; 0.6 mg/0.2 ml, aqueous suspension or sesame oil, ventral prostate weight)	AUC of ventral prostate weight over the 10-week period, rank among bucyclate esters (ventral prostate weight [2]; single subcutaneous 0.6 mg suspended in aqueous carrier, FIG. 9)
CCCCCCCCCCC(=O)O[C@H]1CC[C@H]2[C@H]3[C@H]([C@@H](C)C[C@]12C)[C@H]1CCC(=O)C=C1C[C@H]3C [Compound II, 7α,11β-dimethyl-17β-hydroxyestr-4-en-3-one 17-undecanoate]	0.52 times	most dramatic increases and maintenance of ventral prostate weight	about 3 times	1817 mg-weeks	–	–	–	–	–
CCCC[C@H]1CC[C@H](C(=O)O[C@H]2CC[C@H]3[C@H]4[C@H]([C@@H](C)C[C@]23C)[C@H]2CCC(=O)C=C2C[C@H]4C)CC1 (relative stereo) [Compound I, 7α,11β-Dimethyl-17β-hydroxy-4-estren-3-one 17β-trans-4-n-butylcyclohexane carboxylate]	–	–	about 3 times	–	relatively weak activity	19.3	most dramatic increase and maintenance of ventral prostate weight	far exceeds the activity exhibited by the comparative esters	greatest AUC
